For one experiment, the system named is Rhizoctonia solani. Put plainly: B.2.4 microtest, activity against Rhizoctonia solani. The conditions noted are these: MTP, 7 days after inoculation. It counts as cell-based.
The next experiment relates to Alternaria solani. Put plainly: B.2.2 microtest, activity against early blight. It counts as cell-based. Conditions: MTP, 7 days after inoculation.
Experiment [1] concerns western corn rootworm (Diabrotica virgifera virgifera). Nature of the experiment: Test B.1.2 control of western corn rootworm, maximum exposure to treated soil. It counts as in vivo. The conditions noted are these: mortality 3 DAI. The source says:
For evaluating control of western corn rootworm (Diabrotica virgifera virgifera) through maximum exposure method, the insects were exposed to treated soil.
The compounds or mixtures were first dissolved in acetone, and then mixed with soil to obtain the desired different ppm concentrations (w/w) of compound/soil or mixture/soil. For experimental mixtures, identical volumes of both mixing partners were mixed together to achieve the desired respective concentrations. Treatments were applied in solution to sifted (#10 sieve) loamy sand in a plastic bag. Treatments were thoroughly incorporated by sealing and shaking each bag by hand and allowing the solution to soak through the soil mass for at least 10 minutes. Bags were then unsealed and kept open in a fume hood overnight to evaporate the solvent from the soil.
One day after treatment (DAT) water for moisture and water-soaked millet seed as a food source were added to each bag and incorporated thoroughly. About 11 cm^3 of the millet and soil mixture was dispensed into a 1-oz. plastic cup. Each cup was infested with 10 western corn rootworm second-instar larvae and covered. Each cup was a replicate and replication was 3×. The test was maintained in an incubator at 26±1° C. in the dark. Mortality (dead+moribund insects) was evaluated 3 days after infestation (DAI) and mean percent mortality was calculated relative to the untreated control.

Experiment [2] has as its system black cutworm (Agrotis ipsilon). Put plainly: Test B.1.3 control of black cutworm, direct contact (dip) method. It counts as in vivo. The conditions noted are these: for Average Control % 1 DAT: mortality 1 DAT; for Average Control % 5 DAT: mortality 5 DAT. The protocol: For evaluating control of black cutworm (Agrotis ipsilon) through direct contact method, the individual insects were dipped directly into compound solution.
The compounds or mixtures were dissolved in acetone at different concentrations. The compounds or mixtures were formulated using a solution containing 50% (v/v) acetone in water with 0.02 wt % Kinetic®. For experimental mixtures, identical volumes of both mixing partners were mixed together to achieve the desired respective concentrations. Second-instar black cutworms were dipped directly into solution for three seconds and then allowed to air dry on filter paper. One treated black cutworm larva was infested into each 16-cm^2 cell of a 32-cell rearing tray along with the excised shoot of a corn plant and a moistened cotton wick. Cells were then covered with adhesive bio-assay tray lids. Each cell was a replicate and replication was 16×. After infestation, the test was maintained in an incubator at 25.5±1° C. and a 14L:10D light cycle. Mortality (dead+moribund insects) was evaluated 1 and 5 days after treatment (DAT) and mean percent mortality was calculated relative to the untreated control.

Experiment [3] deals with wireworm (Melanotus communis). Put plainly: Test B.1.1 control of wireworm, direct contact (dip) method. It counts as in vivo. Conditions: mortality 3 DAT. As for the experimental part: For evaluating control of wireworm (Melanotus communis) through direct contact method, the individual insects were dipped directly into compound solution.
The compounds or mixtures were dissolved in acetone at different concentrations. The compounds or mixtures were formulated using a solution containing 50% (v/v) acetone in water with 0.02 wt % Kinetic®.
For the experimental mixtures, identical volumes of both mixing partners were mixed together to achieve the desired respective concentrations. Wireworms were dipped directly into solution for three seconds and then allowed to air dry on filter paper.
About 11 cm^3 of water-moistened loamy sand was dispensed into each 16-cm^2 cell of a 32-cell rearing tray. One treated wireworm larva was infested into each cell along with two germinating wheat seeds. Cells were then covered with adhesive bio-assay tray lids. Each cell was a replicate and replication was 10×. After infestation, the test was maintained in an incubator at 26±1° C. in the dark. Mortality (dead+moribund insects) was evaluated 3 days after treatment (DAT) and mean percent mortality was calculated relative to the untreated control.

Another experiment deals with Microdochium nivale. Nature of the experiment: B.2.3 microtest, activity against Microdochium nivale. It counts as cell-based. The conditions noted are these: MTP, 7 days after inoculation.
Experiment [4] concerns seedcorn maggot (Della platura). Nature of the experiment: Test B.1.4 control of seedcorn maggot, maximum exposure to treated soil. It counts as in vivo. Conditions: mortality 2 DAT.
From the text: For evaluating control of seedcorn maggot (Della platura) through maximum exposure, the insects were exposed to treated soil.
The compounds or mixtures were first dissolved in acetone, and then mixed with soil to obtain the desired different ppm concentrations (w/w) of compound/soil or mixture/soil. For experimental mixtures, identical volumes of both mixing partners were mixed together to achieve the desired respective concentrations. Treatments were applied in solution to dry, sifted (#10 sieve) play sand in a glass jar. Treatments were thoroughly incorporated by capping and shaking each jar by hand and allowing the solution to soak through the sand mass for at least 10 minutes. The jars were then uncapped and the sand was kept in a fume hood for 4 hours to evaporate the solvent.
After the sand was dry, 10 cm^3 of the treated sand was dispensed into a 1-oz. plastic cup with bone meal in the bottom as a food source. Each cup was moistened with 4 ml water, infested with five seedcorn maggot second-instar larvae, and covered. Each cup was a replicate and replication was 5×. The test was maintained in an incubator at 22±1° C. in the dark. Mortality (dead+moribund insects) was evaluated 2 days after treatment (DAT) and mean percent mortality was calculated relative to the untreated control.
In the next experiment the test system is Pyricularia oryzae. It counts as cell-based. The conditions noted are these: MTP, 7 days after inoculation.
For experiment [5], the system named is root-knot nematodes (Meloidogyne spp.). Nature of the experiment: Test B.1.5 control of root-knot nematodes, drench application on cucumber plants. It counts as in vivo. Conditions: four weeks after infestation. As for the experimental part:
For evaluating control of root-knot nematodes (Meloidogyne spp.) through exposure via drench application, the nematodes were introduced to treated cucumber plants.
The compounds or mixtures were dissolved in acetone at different concentrations. The compounds or mixtures were formulated using a solution containing 50% (v/v) acetone in water with 0.02 wt % Kinetic®. For experimental mixtures, identical volumes of both mixing partners were mixed together to achieve the desired respective concentrations.
Germinated cucumber seeds were planted in 1-oz black plastic cups (one seed per cup) with dry, sifted (#10 sieve) play sand. Treatments were applied as a drench in 7 ml solution to each cup which were held in a fume hood for 1 hour to allow acetone to evaporate. The cups were moved to an environmental chamber (25±2° C., 24 L) and watered daily for the duration of the test. Each cup was a replicate and replication was 5×. At the cucumber's cotyledon stage, each cup was infested with 500 root-knot nematode juveniles (J2s) in 1 ml distilled water.
Four weeks after infestation, cucumber roots were washed off and galls and egg masses were counted. Control was calculated as the reduction in galls or egg masses relative to the untreated control. Mean percent control was calculated for each treatment.

Like-named read-outs stand apart in the source and are kept apart here.

As to `CC1(C)CCC(=Cc2ccc(Cl)cc2)C1(O)Cn1cncn1` (centres unmarked) [Triticonazol, Triticonazole], the Observed efficacy with Rhizoctonia solani (0.25 ppm) was 41; in the experiment with Alternaria solani (0.25 ppm) it was 0; in the experiment on Alternaria solani (1 ppm), 23.

Turning to `N#Cc1nn(-c2c(Cl)cc(C(F)(F)F)cc2Cl)c(N)c1[S+]([O-])C(F)(F)F` (centres unmarked) [Fipronil], the “Average Control %” value in [1] (0.03 ppm compound/soil) was found to be 27%. In experiment [2] (300 ppm), the “Average Control % 1 DAT” value is 13% and the “Average Control % 5 DAT” value is recorded as 31%. In addition, in experiment [3] (30 ppm), the “Average Control %” value is listed as 22%.

Turning to `Cn1cc(C(=O)Nc2ccccc2-c2cc(F)c(F)c(F)c2)c(C(F)F)n1` [Fluxapyroxad], the Observed efficacy in the experiment with Microdochium nivale (0.004 ppm) and with Microdochium nivale (0.063 ppm) was 0 each time.

For emamectin, the “Average Control %” value in experiment [3] (800 ppm) turned out to be 11%.

For the compound `CNC(=O)c1cc(C#N)cc(C)c1NC(=O)c1cc(Br)nn1-c1ncccc1Cl` [Cyantraniliprole, cyantraniliprole], the “Average Control %” value is given as 64% in experiment [4] (10 ppm compound/soil), 23% in experiment [1] (3.1 ppm compound/soil) and 22% in experiment [3] (225 ppm).

Turning to `N#C/N=C1\SCCN1Cc1ccc(Cl)nc1` [Thiacloprid], the “Average Control %” value in experiment [1] (0.2 ppm compound/soil) is 37%.

For `Fc1ccc([C@]2(Cn3cncn3)O[C@H]2c2ccccc2Cl)cc1` (racemic) [Epoxiconazol, Epoxiconazole], the Observed efficacy in the experiment with Pyricularia oryzae (0.063 ppm) is on record as 1; in the experiment with Pyricularia oryzae (0.25 ppm), 28; with Rhizoctonia solani (0.001 ppm), 0; in the experiment with Rhizoctonia solani (0.004 ppm) it was 0; in the experiment on Rhizoctonia solani (0.016 ppm) it was 24; in the experiment with Microdochium nivale (0.004 ppm) it was 8. In the experiment with Microdochium nivale (0.016 ppm), this compound showed an Observed efficacy of 29.

With `CN(C(=O)c1ccccc1)c1cccc(C(=O)Nc2c(Br)cc(C(F)(C(F)(F)F)C(F)(F)F)cc2C(F)(F)F)c1F` [Carboxamide compound of formula I], the “Average Control %” value came out at 21% in experiment [4] (0.06 ppm compound/soil), 30% in [1] (0.01 ppm compound/soil) and 33% in experiment [3] (3 ppm). The Observed efficacy amounted to 2 with Pyricularia oryzae (0.063 ppm); 12 in the experiment with Pyricularia oryzae (1 ppm); 15 with Pyricularia oryzae (4 ppm); 4 in the experiment on Pyricularia oryzae (16 ppm); 0 in the experiment with Rhizoctonia solani (1 ppm); 0 with Rhizoctonia solani (4 ppm). Moreover, the Observed efficacy came out at 0 with Rhizoctonia solani (16 ppm); 0 with Alternaria solani (1 ppm); 0 in the experiment with Alternaria solani (4 ppm); 0 with Alternaria solani (16 ppm); 0 in the experiment with Alternaria solani (63 ppm); 13 in the experiment with Microdochium nivale (4 ppm). Further, the Observed efficacy in the experiment on Microdochium nivale (16 ppm) was determined as 15; in the experiment on Microdochium nivale (63 ppm) it was 4. Moreover, the “Average Control % 1 DAT” value in experiment [2] (3 ppm) was found to be 38%. In experiment [2] (3 ppm), the “Average Control % 5 DAT” value stood at 44%. Further, the “Average Egg Mass Control %” value in experiment [5] (0.3 mg compound/plant) is recorded as −21%. For the same compound, in [5] (0.3 mg compound/plant), the “Average Gall Control %” value was 35%.

With `COC(=O)N(OC)c1ccccc1COc1ccn(-c2ccc(Cl)cc2)n1` [Pyraclostrobin], the Observed efficacy in the experiment with Alternaria solani (0.016 ppm) was 0; in the experiment with Alternaria solani (0.063 ppm), 12; in the experiment on Microdochium nivale (0.016 ppm), 46.

As for `O=[N+]([O-])NC1=NCCN1Cc1ccc(Cl)nc1` [Imidacloprid], the entries for the “Average Control %” value in [4] (3 ppm compound/soil) and in experiment [1] (0.13 ppm compound/soil) were 18% and 17%, respectively.

As to `CN1COCN(Cc2cnc(Cl)s2)/C1=N\[N+](=O)[O-]` [Thiamethoxam], in [3] (25 ppm), the “Average Control %” value was 11%.

In the case of Abamectin, in experiment [5] (0.008 mg compound/plant), the “Average Egg Mass Control %” value is given as 17% and the “Average Gall Control %” value worked out at 24%. In [5] (0.017 mg compound/plant), the “Average Egg Mass Control %” value is 39% and the “Average Gall Control %” value is listed as 40%.

On to `CN/C(=N\[N+](=O)[O-])NCc1cnc(Cl)s1` [Clothianidin], for which the “Average Control %” value in [1] (0.1 ppm compound/soil) is listed as 33%.

Values taken from US10201157B2 (priority 2013, dated 2019).
